Assay results published in paper PMC7932521, “2-aminobenzimidazoles for leishmaniasis: From initial hit discovery to in vivo profiling” (PLoS Neglected Tropical Diseases, 2021).
Read-outs that look alike come from different tables or passages of the source.

Key:
MRC-5 cytotoxicity = format: cell-based; details: human, MRC-5 cells; S1 Data
MRC-5 cells = assay: MRC-5 cytotoxicity; format: cell-based; details: for IC50: Homo sapiens, MRC5, panel sheet, average, read-out: IC-50 MRC-5 cells; for CC50: S1 Data
Plasma protein binding = format: in vitro ADME; details: mouse, pH 7.4, % bound, read-out: Mouse PPB (converted)
Procedure: For plasma protein binding, pooled plasma was thawed in a water bath at 37°C and centrifuged at 4,000 rpm for 5 min to remove any clots. The pH value was measured and adjusted to 7.4, if necessary. RPMI medium (pH 7.4) supplemented with 10% fetal calf serum was used. Working solutions (400 μM) of test compounds were prepared by diluting appropriate volume of the stock solutions with DMSO. Working solutions (400 μM) were spiked into plasma to achieve 2 μM final concentrations as loading solutions. The concentration of organic solvent in the final solutions was 0.5% DMSO. The dialysis instrument was assembled following manufacturer’s instructions. Aliquots of loading solution were loaded in triplicate to the donor side of each dialysis well and dialyzed against an equal volume of dialysis buffer. The plate was shaken and incubated for 6 hours in a humidified incubator with 5% CO2 at 37°C. At the end of dialysis, aliquots of dialysate and retentate were removed into sample collection plates. Each sample was matched with an opposite blank buffer or plasma, with a ratio of matrix:dialysis buffer of 50:50 (v:v) in each well and participated with 500μL of stop solution (50% acetonitrile/methanol; internal standards—200 ng/mL tolbutamide, labetalol and 50 ng/mL metformin). All sample collection plates were rotated at 800 rpm for 5 min to mix samples and centrifuged at 20°C, 4000 rpm for 20 min. Aliquots of supernatant of all the samples were removed and injected into LC-MS/MS. Results were calculated as the percentage of remaining parent compound in plasma or medium after incubation.

[1] = Mouse single-dose pharmacokinetics; format: in vivo; details: for free plasma concentration (corrected by PPB) versus in vitro IC50 (corrected for medium binding): after single oral dosing
Procedure: Compounds were administered to groups (n = 6) of female BALB/c mice via single intravenous dosing (at 2 mg/kg) or single oral dosing (at 50 mg/kg) employing a solution/suspension vehicle comprising of 10% ethanol, 40% PEG400 and 0.4% Tween80 in saline buffer (pH adjusted to 9). Samples derived from plasma (at 0.083 for iv only, 0.25, 1, 2, 4, 8 and 24 h) were quantified by LC−MS/MS. Data analysis and calculation of pharmacokinetic parameters was performed using Phoenix WinNonlin version 7.0.

Mouse 5-day tolerability = format: in vivo; details: healthy mice
Procedure: Compounds were administered to groups (n = 3) of female BALB/c mice via oral gavage in a 5-day exploratory repeat-dose study at doses of 25, 50 and 100 mg/kg/day, employing a solution/suspension vehicle comprising 10% ethanol, 40% PEG400 and 0.4% Tween80 in saline buffer (pH adjusted to 9). Repeat-dose toxicity was evaluated based on mortality, clinical observations, body weight and macroscopic organ pathologies.

[2] = system: L. donovani MHOM/ NP/2003/ BPK282/0-cl4; assay: VL/CL panel, intracellular amastigotes; format: cell-based; details: Leishmania donovani; average; read-out: IC-50 L. donovani MHOM/ NP/2003/ BPK282/0-cl4
Procedure: (§1) For the antileishmania in vitro assays, 3×10^4 PMM/well were seeded in 96-well plates. After 24h, 5×10^5 amastigotes/well were added and incubated for 2h at 37°C. Next, the compounds in 4-fold serial dilutions were added and the plates were further incubated for 5 days (37°C, 5% CO2). Parasite burdens were assessed using an inverted microscope after Giemsa staining. The results were expressed as percent reduction in parasite burdens compared to negative control wells (100% growth) and IC50 values were determined. Values represent the geometric mean of at least two independent experiments. Miltefosine was used as the positive control in all plates.

[3] = system: L. donovani MHOM/ET/2007/LLM-1600; assay: VL/CL panel, intracellular amastigotes; format: cell-based; details: Leishmania donovani; average; read-out: IC-50 L. donovani MHOM/ET/2007/LLM-1600
Procedure: as §1

[4] = system: L. donovani MHOM/NP/03/BPK275/0-cl18; assay: VL/CL panel, intracellular amastigotes; format: cell-based; details: Leishmania donovani; average; read-out: IC-50 L. donovani MHOM/NP/03/BPK275/0-cl18
Procedure: as §1

[5] = system: L. guyanensis MHOM/PE/02/PER 054/0; assay: VL/CL panel, intracellular amastigotes; format: cell-based; details: Leishmania guyanensis; average; read-out: IC-50 L. guyanensis MHOM/PE/02/PER 054/0
Procedure: as §1

[6] = system: L. infantum LEM3323-cl4 PMM; assay: VL/CL panel, intracellular amastigotes; format: cell-based; details: Leishmania infantum, read-out: IC-50 L. infantum LEM3323-cl4 PMM
Procedure: as §1

[7] = system: L. infantum MHOM/BR/2007/WC (L3015); assay: VL/CL panel, intracellular amastigotes; format: cell-based; details: Leishmania infantum; average; read-out: IC-50 L. infantum MHOM/BR/2007/WC (L3015)
Procedure: as §1

[8] = system: L. infantum MHOM/ES/2016/LLM-2346; assay: VL/CL panel, intracellular amastigotes; format: cell-based; details: Leishmania infantum; average; read-out: IC-50 L. infantum MHOM/ES/2016/LLM-2346
Procedure: as §1

[9] = system: L. infantum MHOM/FR/96/LEM3323-cl4; assay: VL/CL panel, intracellular amastigotes; format: cell-based; details: Leishmania infantum; average; read-out: IC-50 L. infantum MHOM/FR/96/LEM3323-cl4
Procedure: as §1

[10] = system: L. major MHOM/IL/81/Friedlin; assay: VL/CL panel, intracellular amastigotes; format: cell-based; details: Leishmania major; average; read-out: IC-50 L. major MHOM/IL/81/Friedlin
Procedure: as §1

[11] = system: L. major MHOM/SA/85/JISH118; assay: VL/CL panel, intracellular amastigotes; format: cell-based; details: Leishmania major; average; read-out: IC-50 L. major MHOM/SA/85/JISH118
Procedure: as §1

[12] = system: L. tropica MHOM/AF/2015/HTD7; assay: VL/CL panel, intracellular amastigotes; format: cell-based; details: Leishmania tropica; average; read-out: IC-50 L. tropica MHOM/AF/2015/HTD7
Procedure: as §1

[13] = system: panel of VL and CL strains (intracellular amastigotes); assay: Panel of VL and CL strains; format: cell-based, Leishmania spp.; details: Leishmania, L. major JISH118 and L. braziliensis H3227 excepted, read-out: IC50 values across panel of VL and CL strains
Procedure: The only two clear exceptions were L. major (MHOM/SA/85/JISH118) and L. braziliensis (MHOM/BR/94/H3227), where a potency drop was evident (see S1 Data for the complete dataset).
as §1

[14] = female, BALB/c, plasma, single oral dose 50 mg/kg
[15] = female, BALB/c, plasma, single oral dose 50 mg/kg, read-out: Cmax

Structure (SMILES)	CC50 (MRC-5 cytotoxicity) [µM]	IC50 (MRC-5 cells) [µM]	fraction unbound at 6 h, 2 μM (Plasma protein binding)	free plasma concentration (corrected by PPB) versus in vitro IC50 (corrected for medium binding) [1]	AUC(0-t) [1, 14] [ng·h/mL]	half-life [1, 14] [h]	Cmax [1, 15] [ng/mL]	5-day tolerability (Mouse 5-day tolerability; oral 25 mg/kg/day)	5-day tolerability (Mouse 5-day tolerability; oral 50 mg/kg/day)	5-day tolerability (Mouse 5-day tolerability; oral top dose (100 mg/kg/day))	IC50 [2] [µM]	IC50 [3] [µM]	IC50 [4] [µM]	IC50 [5] [µM]	IC50 [6] [µM]	IC50 [7] [µM]	IC50 [8] [µM]	IC50 [9] [µM]	IC50 [10] [µM]	IC50 [11] [µM]	further results
Cn1nc(C(F)(F)F)cc1C(=O)Nc1nc2ccc(C#N)cc2n1CC(F)(F)F [Compound 39, O=C(c1cc(C(F)(F)F)nn1C)Nc2nc(ccc(C#N)c3)c3n2CC(F)(F)F]	7.87	14.7	0.006	up to four times above the free IC50	63700	8	7300	well tolerated	clinical signs from day 3 of treatment	body weight reduction and severe toxic signs, including mortality	0.1	1.61	0.11	1.08	3.21	3.64	4.65	3.01	3.04	17	Cmax ([1]; female, BALB/c, plasma, single 50 mg/kg oral dose, read-out: total Cmax): ~17 µM; exposure (AUClast) compared to 29 at the same dose ([1]; oral 50 mg/kg): 2 fold; IC50 [12]: 5.9 µM; IC50 [13]: 0.11 to 5.9 µM
COc1ccc(C(=O)Nc2nc3ccc(C#N)cc3n2CC(F)(F)F)cn1 [Compound 43, O=C(c1ccc(OC)nc1)Nc2nc(ccc(C#N)c3)c3n2CC(F)(F)F]	> 64																				
Cn1nccc1C(=O)Nc1nc2ccc(C#N)cc2n1CC(F)(F)F [Compound 30, O=C(c1ccnn1C)Nc2nc(ccc(C#N)c3)c3n2CC(F)(F)F]	12.8		0.042		25200	6.8	2000														
N#Cc1ccc2nc(NC(=O)c3ccc(C(F)(F)F)nc3)n(CC(F)(F)F)c2c1 [Compound 45, O=C(c1ccc(C(F)(F)F)nc1)Nc2nc(ccc(C#N)c3)c3n2CC(F)(F)F]																					CC50 (MRC-5 cells): > 64 µM
N#Cc1ccc2nc(NC(=O)c3ccnc(C(F)(F)F)c3)n(CC(F)(F)F)c2c1 [Compound 44, O=C(c1ccnc(C(F)(F)F)c1)Nc2nc(ccc(C#N)c3)c3n2CC(F)(F)F]			0.008																		CC50 (MRC-5 cells): > 64 µM
Cn1nccc1C(=O)Nc1nc2ccc(C#N)cc2n1CC(C)(C)C [Compound 29, O=C(Nc1n(CC(C)(C)C)c(c2n1)cc(C#N)cc2)c3n(C)ncc3]	14.9	> 64	0.029	below the in vitro IC50	35400		2000	well tolerated	clinical signs from day 3 of treatment	body weight reduction and severe toxic signs, including mortality	0.3	4.04	1.02	0.55	1.62	2.68	3.17	2.81	1.71	8.64	higher AUClast, 50 vs 10 mg/kg oral [1]: approximately 4 fold; increase in Cmax, 50 vs 10 mg/kg oral [1]: 2 fold; clearance ([1]; female, BALB/c, plasma, 2 mg/kg IV): 9 mL/min/kg; bioavailability [1, 14]: 37%; IC50 [12]: 2.85 µM; IC50 [13]: 0.11 to 5.9 µM
